Test results from publication PMC7939381, “MMP activation–associated aminopeptidase N reveals a bivalent 14-3-3 binding motif” (The Journal of Biological Chemistry, 2021).
Where a SMILES comes first, the peptide text is derived from it. [ ]: non-standard residue; d: D form. pT = C[C@@H](OP(=O)(O)O)[C@H](N)C(=O)O; pS = N[C@@H](COP(=O)(O)O)C(=O)O

Legend:
14-3-3η [1] = biological target: T1, 14-3-3η (Homo sapiens, UniProt Q04917); assay: isothermal titration calorimetry (ITC) with 14-3-3η; assay type: binding
T1 construct: N-terminally His6-tagged 14-3-3 full-length proteins were expressed with heterologous bacterial expression; made in house
T1 sequence (Q04917 1-246): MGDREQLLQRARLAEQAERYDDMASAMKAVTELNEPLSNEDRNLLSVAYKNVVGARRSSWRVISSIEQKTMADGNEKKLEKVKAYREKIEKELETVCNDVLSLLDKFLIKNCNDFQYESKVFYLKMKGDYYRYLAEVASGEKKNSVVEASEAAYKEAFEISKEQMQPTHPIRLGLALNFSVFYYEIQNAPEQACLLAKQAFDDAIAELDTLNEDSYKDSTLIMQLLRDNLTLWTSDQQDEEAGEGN
Protocol: The ITC experiments were performed on an automated MicroCal iTC200 (Malvern Panalytical). To prepare 14-3-3 proteins for ITC measurements, a buffer exchange to ITC buffer (50 mM HEPES, pH 7.4, 250 mM NaCl, 20 mM MgCl2) was performed on a Superdex 75 10/300 GL column (ÄKTA Pure FPLC system, GE Healthcare). For peptides 1, 7, and 17, a 500 μM solution of protein was titrated to a 50 μM solution of peptide in 18 steps (2-μl volume in 4 s, 180-s spacing) at 25 °C. For peptide 11, a 250 μM solution of protein was titrated to a 12.5 μM solution of peptide with the settings mentioned before. The reference power was set to […], and the stirring speed was set to 750 rpm. Analysis was performed using MicroCal ITC-ORIGIN analysis software.

14-3-3η [2] = biological target: T1, 14-3-3η; assay: direct binding FP assay, 14-3-3η; conditions: FITC-labeled peptide; FP buffer pH 7.4; 60 min room temperature; mean ± S.D., n = 3; values for 14-16 are estimated (Fig. S4); read-out: KD toward 14-3-3η (FP assay)
Protocol: For the FP assay, the 14-3-3 proteins were diluted to a protein-specific start concentration in FP buffer (10 mM HEPES, pH 7.4, 150 mM NaCl, 2 mM DTT, 0.01% Tween 20). DMSO stocks of peptides were diluted in FP buffer to a concentration of 30 nM. For the assay, 10 μl of FP buffer were pipetted in 20 wells of a 384-well Corning black round bottom plate. A dilution series with 10 μl of protein solution was performed, and 5 μl of peptide solution was added to each well for a final volume of 15 μl. The plate was incubated for 60 min at room temperature. Measurement was performed at 25 °C in a Tecan Spark20M plate reader (λex = 470 nm, λem = 525 nm). Data analysis was performed with GraphPad Prism (version 5.03), and KD values were determined via a nonlinear regression fit of dose-response curves with variable slope (four parameters).

Kd (14-3-3η [2])	Compound	other results
–	17: APN 36–73 pThr^63 peptide [compound 17]	ITC result with 14-3-3η (in words) (14-3-3η [1]; 500 μM protein titrated to 50 μM peptide, 25 °C, Fig. S8): no heat change could be observed
–	CC(=O)N[C@@H](CCC(=O)O)C(=O)N[C@@H](CCCCN)C(=O)N[C@@H](CC(N)=O)C(=O)N[C@@H](CCCCN)C(=O)N[C@@H](CC(N)=O)C(=O)N[C@@H](C)C(=O)N[C@@H](CC(N)=O)C(=O)N[C@@H](COP(=O)(O)O)C(=O)N[C@@H](CO)C(=O)N1CCC[C@H]1C(=O)N[C@H](C(=O)N[C@@H](C)C(=O)N[C@@H](CO)C(=O)N[C@H](C(=O)N[C@H](C(=O)N1CCC[C@H]1C(=O)N[C@@H](CO)C(=O)N[C@@H](C)C(=O)N[C@@H](CO)C(=O)N[C@@H](C)C(=O)N[C@H](C(=O)N[C@H](C(=O)N[C@@H](CC(N)=O)C(=O)N1CCC[C@H]1C(=O)N[C@@H](C)C(=O)N[C@@H](CO)C(=O)N[C@@H](C)C(=O)N[C@H](C(=O)N[C@H](C(=O)N[C@@H](CC(C)C)C(=O)N[C@@H](CC(=O)O)C(=O)N[C@@H](CCC(N)=O)C(=O)N[C@@H](CO)C(=O)N[C@@H](CCCCN)C(=O)N[C@@H](C)C(=O)N[C@@H](Cc1c[nH]c2ccccc12)C(=O)N[C@@H](CC(N)=O)C(=O)N[C@@H](CCCNC(=N)N)C(=O)O)[C@@H](C)O)[C@@H](C)O)[C@@H](C)O)[C@@H](C)O)[C@@H](C)O)[C@@H](C)O)C(C)C [compound 7] (Ac-EKNKNAN[pS]SPVASTTPSASATTNPASATTLDQSKAWNR-OH)	binding stoichiometry N (ITC, 14-3-3η) (14-3-3η [1]; T = 298 K, peptide per 14-3-3 protomer, mean ± S.D., n = 3): 1.13 ± 0.18
18 ± 2.1 µM	CC(C)C[C@H](NC(=O)[C@@H](NC(=O)[C@@H](NC(=O)[C@H](C)NC(=O)[C@H](CO)NC(=O)[C@H](C)NC(=O)[C@@H]1CCCN1C(=O)[C@H](CC(N)=O)NC(=O)[C@@H](NC(=O)[C@@H](NC(=O)[C@H](C)NC(=O)[C@H](CO)NC(=O)[C@H](C)NC(=O)[C@H](CO)NC(=O)[C@@H]1CCCN1C(=O)[C@@H](NC(=O)[C@@H](NC(=O)[C@H](CO)NC(=O)[C@H](C)NC(=O)[C@@H](NC(=O)[C@@H]1CCCN1C(=O)[C@H](CO)NC(=O)[C@H](COP(=O)(O)O)NC(=O)[C@H](CC(N)=O)NC(=O)[C@H](C)NC(=O)[C@H](CC(N)=O)NC(=O)[C@H](CCCCN)NC(=O)[C@H](CC(N)=O)NC(=O)[C@H](CCCCN)NC(=O)[C@@H](N)CCC(=O)O)C(C)C)[C@@H](C)O)[C@@H](C)O)[C@@H](C)OP(=O)(O)O)[C@@H](C)O)[C@@H](C)O)[C@@H](C)O)C(=O)N[C@@H](CC(=O)O)C(=O)N[C@@H](CCC(N)=O)C(=O)N[C@@H](CO)C(=O)N[C@@H](CCCCN)C(=O)N[C@@H](C)C(=O)N[C@@H](Cc1c[nH]c2ccccc12)C(=O)N[C@@H](CC(N)=O)C(=O)N[C@@H](CCCNC(=N)N)C(=O)O [compound 8] (H-EKNKNAN[pS]SPVASTTPSASA[pT]TNPASATTLDQSKAWNR-OH)	–
15 ± 1.5 µM	CC(C)C[C@H](NC(=O)[C@@H](NC(=O)[C@@H](NC(=O)[C@H](C)NC(=O)[C@H](CO)NC(=O)[C@H](C)NC(=O)[C@@H]1CCCN1C(=O)[C@H](CC(N)=O)NC(=O)[C@@H](NC(=O)[C@@H](NC(=O)[C@H](C)NC(=O)[C@H](CO)NC(=O)[C@H](C)NC(=O)[C@H](CO)NC(=O)[C@@H]1CCCN1C(=O)[C@@H](NC(=O)[C@@H](NC(=O)[C@H](CO)NC(=O)[C@H](C)NC(=O)[C@@H](NC(=O)[C@@H]1CCCN1C(=O)[C@H](CO)NC(=O)[C@H](COP(=O)(O)O)NC(=O)[C@H](CC(N)=O)NC(=O)[C@H](C)NC(=O)[C@H](CC(N)=O)NC(=O)[C@H](CCCCN)NC(=O)[C@H](CC(N)=O)NC(=O)[C@H](CCCCN)NC(=O)[C@@H](N)CCC(=O)O)C(C)C)[C@@H](C)O)[C@@H](C)O)[C@@H](C)O)[C@@H](C)OP(=O)(O)O)[C@@H](C)O)[C@@H](C)O)C(=O)N[C@@H](CC(=O)O)C(=O)N[C@@H](CCC(N)=O)C(=O)N[C@@H](CO)C(=O)N[C@@H](CCCCN)C(=O)N[C@@H](C)C(=O)N[C@@H](Cc1c[nH]c2ccccc12)C(=O)N[C@@H](CC(N)=O)C(=O)N[C@@H](CCCNC(=N)N)C(=O)O [compound 9] (H-EKNKNAN[pS]SPVASTTPSASAT[pT]NPASATTLDQSKAWNR-OH)	–
0.42 ± 0.03 µM	CC(C)C[C@H](NC(=O)[C@@H](NC(=O)[C@@H](NC(=O)[C@H](C)NC(=O)[C@H](COP(=O)(O)O)NC(=O)[C@H](C)NC(=O)[C@@H]1CCCN1C(=O)[C@H](CC(N)=O)NC(=O)[C@@H](NC(=O)[C@@H](NC(=O)[C@H](C)NC(=O)[C@H](CO)NC(=O)[C@H](C)NC(=O)[C@H](CO)NC(=O)[C@@H]1CCCN1C(=O)[C@@H](NC(=O)[C@@H](NC(=O)[C@H](CO)NC(=O)[C@H](C)NC(=O)[C@@H](NC(=O)[C@@H]1CCCN1C(=O)[C@H](CO)NC(=O)[C@H](COP(=O)(O)O)NC(=O)[C@H](CC(N)=O)NC(=O)[C@H](C)NC(=O)[C@H](CC(N)=O)NC(=O)[C@H](CCCCN)NC(=O)[C@H](CC(N)=O)NC(=O)[C@H](CCCCN)NC(=O)[C@@H](N)CCC(=O)O)C(C)C)[C@@H](C)O)[C@@H](C)O)[C@@H](C)O)[C@@H](C)O)[C@@H](C)O)[C@@H](C)O)C(=O)N[C@@H](CC(=O)O)C(=O)N[C@@H](CCC(N)=O)C(=O)N[C@@H](CO)C(=O)N[C@@H](CCCCN)C(=O)N[C@@H](C)C(=O)N[C@@H](Cc1c[nH]c2ccccc12)C(=O)N[C@@H](CC(N)=O)C(=O)N[C@@H](CCCNC(=N)N)C(=O)O [compound 10] (H-EKNKNAN[pS]SPVASTTPSASATTNPA[pS]ATTLDQSKAWNR-OH)	–
0.18 ± 0.01 µM	CC(C)C[C@H](NC(=O)[C@@H](NC(=O)[C@@H](NC(=O)[C@H](C)NC(=O)[C@H](CO)NC(=O)[C@H](C)NC(=O)[C@@H]1CCCN1C(=O)[C@H](CC(N)=O)NC(=O)[C@@H](NC(=O)[C@@H](NC(=O)[C@H](C)NC(=O)[C@H](CO)NC(=O)[C@H](C)NC(=O)[C@H](CO)NC(=O)[C@@H]1CCCN1C(=O)[C@@H](NC(=O)[C@@H](NC(=O)[C@H](CO)NC(=O)[C@H](C)NC(=O)[C@@H](NC(=O)[C@@H]1CCCN1C(=O)[C@H](CO)NC(=O)[C@H](COP(=O)(O)O)NC(=O)[C@H](CC(N)=O)NC(=O)[C@H](C)NC(=O)[C@H](CC(N)=O)NC(=O)[C@H](CCCCN)NC(=O)[C@H](CC(N)=O)NC(=O)[C@H](CCCCN)NC(=O)[C@@H](N)CCC(=O)O)C(C)C)[C@@H](C)O)[C@@H](C)O)[C@@H](C)O)[C@@H](C)O)[C@@H](C)O)[C@@H](C)OP(=O)(O)O)C(=O)N[C@@H](CC(=O)O)C(=O)N[C@@H](CCC(N)=O)C(=O)N[C@@H](CO)C(=O)N[C@@H](CCCCN)C(=O)N[C@@H](C)C(=O)N[C@@H](Cc1c[nH]c2ccccc12)C(=O)N[C@@H](CC(N)=O)C(=O)N[C@@H](CCCNC(=N)N)C(=O)O [compound 12] (H-EKNKNAN[pS]SPVASTTPSASATTNPASAT[pT]LDQSKAWNR-OH)	–
> 83 µM	CC(C)C[C@H](NC(=O)[C@@H](NC(=O)[C@@H](NC(=O)[C@H](C)NC(=O)[C@H](CO)NC(=O)[C@H](C)NC(=O)[C@@H]1CCCN1C(=O)[C@H](CC(N)=O)NC(=O)[C@@H](NC(=O)[C@@H](NC(=O)[C@H](C)NC(=O)[C@H](CO)NC(=O)[C@H](C)NC(=O)[C@H](CO)NC(=O)[C@@H]1CCCN1C(=O)[C@@H](NC(=O)[C@@H](NC(=O)[C@H](CO)NC(=O)[C@H](C)NC(=O)[C@@H](NC(=O)[C@@H]1CCCN1C(=O)[C@H](CO)NC(=O)[C@H](COP(=O)(O)O)NC(=O)[C@H](CC(N)=O)NC(=O)[C@H](C)NC(=O)[C@H](CC(N)=O)NC(=O)[C@H](CCCCN)NC(=O)[C@H](CC(N)=O)NC(=O)[C@H](CCCCN)NC(=O)[C@@H](N)CCC(=O)O)C(C)C)[C@@H](C)O)[C@@H](C)O)[C@@H](C)O)[C@@H](C)O)[C@@H](C)O)[C@@H](C)O)C(=O)N[C@@H](CC(=O)O)C(=O)N[C@@H](CCC(N)=O)C(=O)N[C@@H](COP(=O)(O)O)C(=O)N[C@@H](CCCCN)C(=O)N[C@@H](C)C(=O)N[C@@H](Cc1c[nH]c2ccccc12)C(=O)N[C@@H](CC(N)=O)C(=O)N[C@@H](CCCNC(=N)N)C(=O)O [compound 13] (H-EKNKNAN[pS]SPVASTTPSASATTNPASATTLDQ[pS]KAWNR-OH; N-terminus assumed)	–
